According to US20210330611A1, “THERAPY FOR NEUROLOGICAL DISEASES/DISORDERS” (priority 2020, published 2021):
Counter-ions that a name gives are not always drawn. Like-named read-outs stand apart in the source and are kept apart here.

Assays:
[1] = tested on: fibrin-induced microglia activation; assay: Image-based assay of fibrin-induced microglia activation (HTS and dose response); format: cell-based, rat; details: for inhibition at 10 µM: Rattus norvegicus, Microglia, read-out: Fibrin % inhibition
[2] = tested on: LPS-induced microglia activation; assay: Image-based assay of LPS-induced microglia activation (HTS and dose response); format: cell-based, rat; details: for inhibition at 10 µM: Rattus norvegicus, Microglia, read-out: LPS % inhibition
[3] = tested on: fibrin- and LPS-induced microglia activation; assay: cells; format: cell-based, rat
primary rat microglia [4] = assay: Cell toxicity (dead cells, size <150 μm2) in LPS assay
primary rat microglia [5] = assay: Cell toxicity (dead cells, size <150 μm2) in coated fibrin (cFib) assay;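 note: share of dead cells sized under 150 µm2 at 10 µM in fibrin-stimulated microglia HTS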
[6] = primary HTS, 10 μM, fibrin-stimulated primary microglia
[7] = primary HTS, 10 μM, LPS-stimulated primary microglia
[8] = primary HTS, 10 μM, LPS assay, dead cells size <150 μm2
[9] = primary HTS, 10 μM, fibrin assay, dead cells size <150 μm2
[10] = primary microglia HTS, fibrin stimulation, activation = cell size >800 μm2
[11] = 48 h, primary microglia HTS, LPS stimulation, activation = cell size >800 μm2
[12] = quadrant by fibrin and LPS inhibition in HTS of 1907 compounds
[13] = primary microglia HTS, LPS stimulation, toxicity = cell size <150 μm2
[14] = primary microglia HTS, fibrin stimulation, toxicity = cell size <150 μm2
[15] = primary microglia HTS, LPS stimulation, activation = cell size >800 μm2
[16] = primary microglia HTS, 10 μM, fibrin-stimulated, cell size >800 μm^2 as marker of activation
[17] = primary microglia HTS, 10 μM, LPS-stimulated, cell size >800 μm^2 as marker of activation
[18] = HTS of 1907 compounds, quadrant by fibrin and LPS inhibition
[19] = primary microglia HTS, 10 μM, LPS assay, cell size <150 μm^2 as marker of toxicity
[20] = primary microglia HTS, 10 μM, fibrin assay, cell size <150 μm^2 as marker of toxicity

| SMILES | inhibition at 10 µM [1, 6] | inhibition at 10 µM [2, 7] | Quadrant (FIG. 5b) ([3]; primary HTS, 10 μM) | LPS % cell toxicity (primary rat microglia [4]; [8]) | Fibrin % cell toxicity (primary rat microglia [5]; [9]) | Quadrant (FIG. 5b) [3, 12] | LPS % cell toxicity (primary rat microglia [4]; [13]) | Fibrin % cell toxicity (primary rat microglia [5]; [14]) | other results |
| --- | --- | --- | --- | --- | --- | --- | --- | --- | --- |
| Nc1c(CC(=O)O)cccc1C(=O)c1ccc(Br)cc1 [Bromfenac] | -12% | 0% | Q4 | 0% | 1% |  |  |  |  |
| C[C@H]1COc2c(N3CCN(C)CC3)c(F)cc3c(=O)c(C(=O)O)cn1c23 [Levofloxacin] |  |  |  |  |  | Q4 | 0% | 1% | inhibition at 10 µM [1, 10]: 12%; inhibition at 10 µM [2, 11]: 31% |
| CC#CCC(C)[C@H](O)/C=C/[C@@H]1[C@H]2C/C(=C/CCCC(=O)O)C[C@H]2C[C@H]1O (stereo partly drawn) [Iloprost] |  |  |  |  |  | Q4 | 0% | 1% | inhibition at 10 µM [1, 10]: 23%; inhibition at 10 µM [2, 11]: -1% |
| CC(C)(C)CC(C)(C)c1cc(Cc2cc(C(C)(C)CC(C)(C)C)cc(-n3nc4ccccc4n3)c2O)c(O)c(-n2nc3ccccc3n2)c1 [Bisoctrizole] | 33% | 20% | Q4 | 0% | 0% |  |  |  |  |
| O=C(O)c1cc(O)c(O)c(O)c1 [Gallic Acid] |  |  |  |  |  | Q4 | 0% | 0% | inhibition at 10 µM [1, 10]: -32%; inhibition at 10 µM [2, 11]: 10% |
| CCC[C@@H]1C[C@@H](C(=O)N[C@@H]([C@H]2O[C@H](SC)[C@H](O)[C@@H](O)[C@H]2O)[C@@H](C)O)N(C)C1 [Lincomycin] |  |  |  |  |  | Q4 | 0% | 1% | Fibrin % inhibition [1, 10]: −29%; LPS % inhibition [2, 15]: −5% |
| CC(C)(C)NC[C@H](O)COc1cccc2c1CCCC2=O [Levobunolol Hydrochloride] |  |  |  |  |  | Q4 | 0% | 0% | Fibrin % inhibition [1, 10]: −19%; LPS % inhibition [2, 15]: 12% |
| O=C(NC(=O)c1c(F)cccc1F)Nc1cc(Cl)c(OC(F)(F)C(F)C(F)(F)F)cc1Cl (stereo not drawn) [Lufenuron] |  |  |  |  |  | Q4 |  |  | inhibition at 10 µM ([1]; primary microglia HTS, fibrin stimulation, increased cell size (>800 μm^2) as marker of activation): 15%; inhibition at 10 µM ([2]; 48 h, primary microglia HTS, LPS stimulation, increased cell size (>800 μm^2) as marker of activation): 13%; LPS % cell toxicity (primary rat microglia [4]; primary microglia HTS, LPS stimulation, decreased size (<150 μm^2) as marker of toxicity): 0%; Fibrin % cell toxicity (primary rat microglia [5]; primary microglia HTS, fibrin stimulation, decreased size (<150 μm^2) as marker of toxicity): 1% |
| Cc1c(C)c2c(c(C)c1O)CCC(C)(COc1ccc(CC3SC(=O)NC3=O)cc1)O2 (stereo not drawn) [Troglitazone] |  |  |  |  |  |  |  |  | inhibition at 10 µM [1, 16]: -22%; inhibition at 10 µM [2, 17]: 4%; Quadrant (FIG. 5b) [3, 18]: Q4; LPS % cell toxicity (primary rat microglia [4]; [19]): 0%; Fibrin % cell toxicity (primary rat microglia [5]; [20]): 1% |
| Cc1cc(O)cc(C)c1Cl [Chloroxylenol] | -15% | 7% | Q4 | 0% | 1% |  |  |  |  |
| CCCCN(CCCC)CCCOC(=O)c1ccc(N)cc1 [Butacaine] | -18% | 3% | Q4 | 0% | 0% |  |  |  |  |
| O=[N+]([O-])O[C@@H]1CO[C@H]2[C@@H]1OC[C@@H]2O [Isosorbide Mononitrate] |  |  |  |  |  | Q4 | 1% | 0% | inhibition at 10 µM [1, 10]: -17%; inhibition at 10 µM [2, 11]: 15% |
| CCC[C@@H]1C[C@@H](C(=O)N[C@@H]([C@H]2O[C@H](SC)[C@H](O)[C@@H](O)[C@H]2O)[C@@H](C)O)N(C)C1 [Lincomycin Hydrochloride] |  |  |  |  |  | Q4 | 0% | 1% | Fibrin % inhibition [1, 10]: −4%; LPS % inhibition [2, 15]: 14% |
| CO/N=C(\C(=O)N[C@@H]1C(=O)N2C(C(=O)O)=C(CSC(=O)c3ccco3)CS[C@H]12)c1csc(N)n1 [Ceftiofur Hydrochloride] | 4% | 14% | Q4 | 0% | 1% |  |  |  |  |
| C[C@H](CCC(=O)O)[C@H]1CC[C@H]2[C@@H]3[C@@H](O)C[C@@H]4C[C@H](O)CC[C@]4(C)[C@H]3CC[C@]12C [Ursodiol] |  |  |  |  |  |  |  |  | Fibrin % inhibition [1, 16]: −21%; LPS % inhibition [2, 17]: 18%; Quadrant (FIG. 5b) [3, 18]: Q4; LPS % cell toxicity (primary rat microglia [4]; [19]): 0%; Fibrin % cell toxicity (primary rat microglia [5]; [20]): 0% |
